Read-outs that look alike come from different tables or passages of the source.

The test system of data set [1] is edema induced by carrageenin in rat paws. Put plainly: Carrageenin paw edema in rats. It counts as in vivo. The conditions noted are these: read-out: Carrageenin paw edema-rats ED50. A general note: In the carrageenan paw model, swelling and tenderness develop within hours.
Data set [2] deals with writhing induced in mice by 2-phenyl-1,4-benzoquinone. Put plainly: Phenylquinone (2-phenyl-1,4-benzoquinone) writhing in mice, analgesic activity. The format is in vivo. The conditions noted are these: Mus musculus, read-out: Phenylquinone writhing-mice ED50. The text has this: Exp. Biol. Med., 95, 729 (1957)]. The activity of several representative compounds of the present invention and of aspirin and phenylbutazone is expressed as ED50, the dose (mg/kg) of compound producing a 50% reduction in the number of writhes as compared to non-treated 2-phenyl-1,4-benzoquinone dosed controls.
(In general: An intraperitoneal irritant provokes the stretching counted in writhing tests.)

Data set [3] deals with yeast-induced pyrexia in rats. Nature of the data set: Antipyretic assay, yeast-induced pyrexia in rats. The note with it: Rattus norvegicus; dose producing ≥ 1° reduction in rectal temperature in 50 percent of fevered rats; oral; 2 hours past drug. It counts as in vivo, female Charles River or Wistar rats. As to the method: A common property of useful anti-inflammatory agents is their ability to lower elevated body temperatures. […] Groups of ten female Charles River or Wistar rats (120-150 gm) are injected with a 20% water suspension of "Brewers Yeast" subcutaneously into the nape of the neck (10 ml/kg). The animals are starved (water ad lib.) and 18 hours later rectal temperatures are monitored (Tele-Thermometer, Yellow Springs Instrument Co., Inc., Yellow Springs, Ohio). Animals with a temperature ≥ 37.2°C. are considered fevered. Drugs are administered orally (10 ml/kg) using distilled water and, if insoluble, one drop of a dispersing agent, e.g. "Tween 80," per 10 ml. Temperatures are recorded 2 hours past drug. Significant activity is a reduction in rectal temperature ≥ 1° from the mean control temperature. The activity of the compounds tested is expressed as ED50, the dose (mg/kg) of a compound producing a reduction of ≥ 1° in rectal temperature of fevered rats from the mean fevered control temperature in 50 percent of the animals.

The next data set in a line: in vivo. The note with it: rat, po. The method, then:
A common but undesirable side effect of anti-inflammatory agents is the production of gastric irritation in mammals. […] Groups of male or female rats (Wistar, Long Evans or Charles River), 150-180 gm, are utilized for this assay using 10 animals per dose group. The animals are starved for 48 hours (H2 O ad lib) prior to administration of drug orally at 10 ml/kg. Drugs are prepared using distilled water solutions or, if insoluble, 1 drop of a dispersing agent, e.g. "Tween 80"/10 ml, is used with homogenization. The control group receives the vehicle only (10 ml/kg). […] Stomachs are removed and examined for gastric irritation, which is defined as ulceration and/or hemorrhage of gastric mucosa. The presence of a single ulcer or hemorrhage spot is taken as positive and stomachs must be "clean" to be negative. A dose response is run at the peak time using at least four dose levels of test drug. In the table, gastric irritability is expressed as ID50, the dose (mg/kg) of compound producing irritation in 50 percent of the animals after seven hours.

Data set [4] has as its system adjuvant-induced arthritis in rats. Put plainly: Adjuvant-induced arthritis in rats. It counts as in vivo. The note with it: Rattus norvegicus, 504 h; for inhibition in vivo at 10 mg/kg: 10 mg/kg/day; for inhibition in vivo at 10 mg/kg / inhibition in vivo at 25 mg/kg / inhibition in vivo at 50 mg/kg / inhibition in vivo at 100 mg/kg: rats, day 21; for inhibition in vivo at 25 mg/kg: 25 mg/kg/day; for inhibition in vivo at 50 mg/kg: 50 mg/kg/day; for inhibition in vivo at 100 mg/kg: 100 mg/kg/day.

Where [5] appears, read: dose producing 50% reduction in edema vs non-treated controls, rats.
The mark [6] stands for this setting: dose producing 50% reduction in number of writhes vs non-treated controls, mice.
Where [7] appears, read: read-out: % Inhibition of Edema on Day 21, Adjuvant Injected Paw.
The mark [8] stands for this setting: read-out: % Inhibition of Edema on Day 21, Non-Injected Paw.

One may read the ED50 as the dose at which the effect has come halfway, by size or by number of responders. On to `O=C(O)c1cc(-n2c(-c3ccccc3)cc3c2CCc2ccccc2-3)ccc1O` [3-(3-Carboxy-4-hydroxyphenyl)-4,5-dihydro-2-phenylbenz[e]indole], for which the median effective dose (ED50) in data set [1] (setting [5]) came out at 63 mg/kg; in data set [2] (setting [6]) it was 10 mg/kg; in data set [3] it was 69 mg/kg. In the data set “in vivo”, this molecule registered a TD50 at 7 h of 300 to 350 mg/kg. Also, the inhibition in vivo at 10 mg/kg in data set [4] (setting [7]) worked out at 27%; in data set [4] (setting [8]), 29%. Besides, the figures for the inhibition in vivo at 25 mg/kg in data set [4] (setting [7]) and in data set [4] (setting [8]) were 49% and 72%, respectively. Further, the inhibition in vivo at 50 mg/kg in data set [4] (setting [7]) was determined as 69%; in data set [4] (setting [8]), 81%.
For the molecule `O=C(O)c1cc(-n2c(-c3ccccc3)cc3c2CCCC3)ccc1O` [1-(3-Carboxy-4-hydroxyphenyl)-2-phenyl-4,5,6,7-tetrahydroindole], the median effective dose (ED50) in data set [1] (setting [5]) came out at 87 mg/kg; in data set [2] (setting [6]), 17 mg/kg; in data set [3], 41 mg/kg. The molecule also yielded a TD50 at 7 h in “in vivo” of 130 mg/kg. In addition, the values for the inhibition in vivo at 50 mg/kg in data set [4] (setting [7]) and in data set [4] (setting [8]) were 38% and 72%, respectively. Moreover, the inhibition in vivo at 100 mg/kg came out at 65% in data set [4] (setting [7]) and 80% in data set [4] (setting [8]).
For the molecule `O=C(O)c1cc(-n2c(-c3ccccc3)cc3c2CCCC3)ccc1S` [1-(3-Carboxy-4-mercaptophenyl)-2-phenyl-4,5,6,7-tetrahydroindole], the ED50 in data set [1] (setting [5]) came to 140 mg/kg. Further, in data set [4] (setting [7]), the inhibition in vivo at 10 mg/kg was found to be 23%, the inhibition in vivo at 25 mg/kg came out at 43% and the inhibition in vivo at 50 mg/kg worked out at 67%. Besides, in data set [4] (setting [8]), the inhibition in vivo at 10 mg/kg is 23%, the inhibition in vivo at 25 mg/kg was determined as 57% and the inhibition in vivo at 50 mg/kg amounted to 80%.
In the case of `O=C(O)c1cc(-n2c(-c3ccc(F)cc3)cc3c2CCCC3)ccc1O` [1-(3-Carboxy-4-hydroxyphenyl)-2-(4-fluorophenyl)-4,5,6,7-tetrahydroindole], the 50% effective dose (ED50) in data set [1] (setting [5]) came out at 88 mg/kg. In addition, the inhibition in vivo at 100 mg/kg is 56% in data set [4] (setting [7]) and 64% in data set [4] (setting [8]).
Turning to `CC(=O)Oc1ccc(-n2c(-c3ccccc3)cc3c2CCc2ccccc2-3)cc1C(=O)O` [3-(4-Acetoxy-3-carboxyphenyl)-4,5-dihydro-2-phenylbenz[e]indole], the figures for the median effective dose (ED50) in data set [1] (setting [5]) and in data set [2] (setting [6]) were 70 mg/kg and 16.5 mg/kg, respectively. This molecule also registered a TD50 at 7 h in “in vivo” of more than 300 mg/kg. The inhibition in vivo at 50 mg/kg worked out at 56% in data set [4] (setting [7]) and 68% in data set [4] (setting [8]). Besides, the figures for the inhibition in vivo at 100 mg/kg in data set [4] (setting [7]) and in data set [4] (setting [8]) were 82% and 93%, respectively.
Consider `O=C(O)c1cc(-n2c(-c3ccccc3)cc3c2CCCCC3)ccc1O` [1-(3-Carboxy-4-hydroxyphenyl)-1,4,5,6,7,8-hexahydro-2-phenylcyclohepta[b]pyrrole], for which the ED50 was 125 mg/kg in data set [1] (setting [5]), 10 mg/kg in data set [2] (setting [6]) and 100 mg/kg in data set [3]. The TD50 at 7 h in the data set “in vivo” is more than 200 mg/kg. Moreover, the results for the inhibition in vivo at 100 mg/kg in data set [4] (setting [7]) and in data set [4] (setting [8]) were 75% and 90%, respectively.
With `CCCCC1C(=O)N(c2ccccc2)N(c2ccccc2)C1=O` [Phenylbutazone, reference compound], the ED50 is 83 mg/kg in data set [1] (setting [5]), 89 mg/kg in data set [2] (setting [6]) and less than 50 mg/kg in data set [3]. The TD50 at 7 h in the data set “in vivo” came out at 75 mg/kg. Besides, the figures for the inhibition in vivo at 50 mg/kg in data set [4] (setting [7]) and in data set [4] (setting [8]) were 60% and 71%, respectively.
For the molecule `O=C(O)c1cc(-n2c(-c3ccccc3)cc3c2CCC3)ccc1O` [1-(3-Carboxy-4-hydroxyphenyl)-2-phenyl-1,4,5,6-tetrahydrocyclopenta[b]pyrrole], the ED50 is 110 mg/kg in data set [1] (setting [5]), 10 mg/kg in data set [2] (setting [6]) and less than 50 mg/kg in data set [3]. The same molecule displayed a TD50 at 7 h in the data set “in vivo” of 125 mg/kg. The values for the inhibition in vivo at 100 mg/kg in data set [4] (setting [7]) and in data set [4] (setting [8]) were 57% and 75%, respectively.
As for `CC(=O)Oc1ccccc1C(=O)O` [Aspirin, reference compound], the ED50 in data set [1] was 130 to 140 mg/kg; in data set [2] it was 53 mg/kg; in data set [3] it was 35 mg/kg. The same molecule showed a TD50 at 7 h in the data set “in vivo” (in vivo) of 42 mg/kg. Moreover, the results for the inhibition in vivo at 200 mg/kg in data set [4] (setting [7]) and in data set [4] (setting [8]) were 37% and 47%, respectively.
On to `O=C(O)c1cc(-n2c(-c3ccccc3)cc3c4ccccc4ccc32)ccc1O` [3-(3-Carboxy-4-hydroxyphenyl)-2-phenylbenz[e]indole], for which the ED50 was 90 mg/kg in data set [1] (setting [5]), 16.5 mg/kg in data set [2] (setting [6]) and more than 100 mg/kg in data set [3]. For the same molecule, the TD50 at 7 h in the data set “in vivo” is more than 200 mg/kg. Also, the inhibition in vivo at 25 mg/kg in data set [4] (setting [7]) came out at 45%; in data set [4] (setting [8]), 50%. In addition, the inhibition in vivo at 50 mg/kg in data set [4] (setting [7]) and in data set [4] (setting [8]) was 70% throughout.

The values above are taken from patent US3931407A, “Method of treatment with and compositions containing condensed pyrroles bearing an N-phenyl substituent” (American Hoechst Corporation, priority 1974, dated 1976).
